The source made the active and inactive calls.
How the values were obtained:
[1] = biological target: T1, Corticotropin-releasing factor receptor 2/Corticotropin-releasing factor-binding protein (Homo sapiens, UniProt P24387+Q13324); assay: activators of CRF receptor 2 with binding protein – uHTS hits, confirmation (AID 602473); format: functional; conditions: read-out: EC50_Mean
T1 sequence (Q13324 whole entry): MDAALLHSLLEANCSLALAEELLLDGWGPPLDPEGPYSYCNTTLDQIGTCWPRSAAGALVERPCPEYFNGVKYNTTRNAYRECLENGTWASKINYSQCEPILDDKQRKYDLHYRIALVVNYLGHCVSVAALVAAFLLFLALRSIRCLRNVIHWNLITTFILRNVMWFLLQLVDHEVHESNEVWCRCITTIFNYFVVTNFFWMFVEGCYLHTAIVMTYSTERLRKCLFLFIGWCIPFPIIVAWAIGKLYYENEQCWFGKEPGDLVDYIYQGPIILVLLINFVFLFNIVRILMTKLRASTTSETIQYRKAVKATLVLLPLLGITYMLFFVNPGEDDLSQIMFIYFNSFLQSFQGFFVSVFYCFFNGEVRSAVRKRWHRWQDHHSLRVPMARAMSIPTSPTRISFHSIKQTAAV
T1 sequence (P24387 whole entry): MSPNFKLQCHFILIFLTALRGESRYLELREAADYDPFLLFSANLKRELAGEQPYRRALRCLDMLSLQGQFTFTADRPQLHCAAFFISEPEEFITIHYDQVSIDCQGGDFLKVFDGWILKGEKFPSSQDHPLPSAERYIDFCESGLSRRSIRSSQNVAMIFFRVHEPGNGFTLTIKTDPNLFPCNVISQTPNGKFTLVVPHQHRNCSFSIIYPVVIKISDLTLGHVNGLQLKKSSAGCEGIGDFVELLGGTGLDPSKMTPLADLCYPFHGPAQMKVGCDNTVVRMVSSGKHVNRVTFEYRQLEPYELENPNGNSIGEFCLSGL

[2] = biological target: T1, Corticotropin-releasing factor receptor 2/Corticotropin-releasing factor-binding protein; assay: Dose Response confirmation of uHTS hits for small molecule antagonists of the CRF-binding protein and CRF-R2 receptor complex.; format: functional; conditions: read-out: IC50_Mean
[3] = P. falciparum Dd2 growth inhibitors, dose response, SYBR Green, cherry-picked samples (AID 1159567); format: functional, cell-based
[4] = biological target: Cytochrome P450 3A4 (Homo sapiens, UniProt P08684);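 note: CYP3A4 tested as one member of a cytochrome P450 panel screen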
Chain of Cytochrome P450 3A4 (P08684 whole entry): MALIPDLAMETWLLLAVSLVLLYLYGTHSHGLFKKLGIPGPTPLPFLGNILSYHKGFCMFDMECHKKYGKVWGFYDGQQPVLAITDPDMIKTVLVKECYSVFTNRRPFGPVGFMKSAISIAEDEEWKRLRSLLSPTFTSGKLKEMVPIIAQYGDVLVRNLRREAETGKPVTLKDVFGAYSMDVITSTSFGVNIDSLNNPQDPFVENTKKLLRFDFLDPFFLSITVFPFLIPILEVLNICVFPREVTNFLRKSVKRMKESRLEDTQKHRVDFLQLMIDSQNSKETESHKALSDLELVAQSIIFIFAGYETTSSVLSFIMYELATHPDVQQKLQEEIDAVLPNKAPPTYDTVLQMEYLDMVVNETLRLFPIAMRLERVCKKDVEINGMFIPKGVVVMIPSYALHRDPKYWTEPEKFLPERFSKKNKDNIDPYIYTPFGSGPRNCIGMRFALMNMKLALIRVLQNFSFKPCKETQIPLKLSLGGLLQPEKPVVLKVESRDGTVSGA

[5] = biological target: Cytochrome P450 2C19 (Homo sapiens, UniProt P33261); assay: Cytochrome panel assay with activity outcomes. Panel member name: p450-cyp2c19 Compounds with AC50 equal or less than 10 uM are considered active; format: functional; conditions: read-out: AC50
Chain of Cytochrome P450 2C19 (P33261 whole entry): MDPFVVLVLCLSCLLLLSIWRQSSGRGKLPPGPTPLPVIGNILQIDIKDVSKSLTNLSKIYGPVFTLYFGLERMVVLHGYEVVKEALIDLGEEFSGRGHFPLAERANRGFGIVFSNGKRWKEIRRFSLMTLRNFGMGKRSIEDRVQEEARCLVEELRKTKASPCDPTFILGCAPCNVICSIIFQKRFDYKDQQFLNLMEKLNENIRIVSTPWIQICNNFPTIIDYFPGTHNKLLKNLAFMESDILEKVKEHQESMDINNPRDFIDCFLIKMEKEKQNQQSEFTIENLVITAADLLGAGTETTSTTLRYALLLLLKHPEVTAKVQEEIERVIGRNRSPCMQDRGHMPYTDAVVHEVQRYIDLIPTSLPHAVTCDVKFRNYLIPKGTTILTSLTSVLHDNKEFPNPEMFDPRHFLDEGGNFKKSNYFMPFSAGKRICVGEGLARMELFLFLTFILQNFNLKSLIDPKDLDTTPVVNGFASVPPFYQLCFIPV

[6] = biological target: Cytochrome P450 2D6 (Homo sapiens, UniProt P10635);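 note: CYP2D6 member of a cytochrome P450 panel assay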
Chain of Cytochrome P450 2D6 (P10635 whole entry): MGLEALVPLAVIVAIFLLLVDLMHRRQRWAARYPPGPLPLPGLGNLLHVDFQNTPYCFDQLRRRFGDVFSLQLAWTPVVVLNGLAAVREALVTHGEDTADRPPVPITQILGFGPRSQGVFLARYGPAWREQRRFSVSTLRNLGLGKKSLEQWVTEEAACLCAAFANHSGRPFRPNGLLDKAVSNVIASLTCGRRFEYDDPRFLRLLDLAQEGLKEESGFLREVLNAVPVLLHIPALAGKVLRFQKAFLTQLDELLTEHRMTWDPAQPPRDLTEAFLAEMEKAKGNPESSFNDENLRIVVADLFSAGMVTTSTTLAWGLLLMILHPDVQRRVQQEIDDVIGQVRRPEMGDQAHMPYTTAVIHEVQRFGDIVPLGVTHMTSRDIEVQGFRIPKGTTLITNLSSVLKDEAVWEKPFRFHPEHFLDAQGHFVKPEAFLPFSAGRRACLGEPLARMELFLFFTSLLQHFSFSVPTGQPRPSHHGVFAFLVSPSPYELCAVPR

[7] = biological target: T2, Protein skinhead-1 (Caenorhabditis elegans, UniProt P34707); format: functional
T2 sequence (P34707 whole entry): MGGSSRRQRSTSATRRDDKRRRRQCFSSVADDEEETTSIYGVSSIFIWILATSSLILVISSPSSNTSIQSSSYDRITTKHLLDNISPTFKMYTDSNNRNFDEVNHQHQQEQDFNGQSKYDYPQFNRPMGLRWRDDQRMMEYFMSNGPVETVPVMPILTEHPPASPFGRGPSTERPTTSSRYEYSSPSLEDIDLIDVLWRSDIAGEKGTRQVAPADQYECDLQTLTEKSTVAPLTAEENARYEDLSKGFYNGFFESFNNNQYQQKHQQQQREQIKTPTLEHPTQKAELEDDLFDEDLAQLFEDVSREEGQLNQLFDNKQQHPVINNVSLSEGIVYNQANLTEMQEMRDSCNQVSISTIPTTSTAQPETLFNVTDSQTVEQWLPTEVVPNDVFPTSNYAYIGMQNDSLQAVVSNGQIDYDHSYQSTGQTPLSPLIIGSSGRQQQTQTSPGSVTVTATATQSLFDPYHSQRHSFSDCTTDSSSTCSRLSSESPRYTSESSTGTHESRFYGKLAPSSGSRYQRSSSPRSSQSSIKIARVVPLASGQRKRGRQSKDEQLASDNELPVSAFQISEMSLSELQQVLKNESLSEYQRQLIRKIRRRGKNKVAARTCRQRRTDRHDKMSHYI

[8] = cells; format: functional
[9] = NIH3T3 cell viability loss – ATP luminescence, mouse fibroblasts, counter-screen, dose response (AID 2010); format: functional, cell-based;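 note: cells exposed to compound for about 90 hours before reading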
[10] = biological target: T3, Cytochrome P450 1A2 (Homo sapiens, UniProt P05177);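 note: PubChem cytochrome P450 panel assay, CYP1A2 panel member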
T3 sequence (P05177 whole entry): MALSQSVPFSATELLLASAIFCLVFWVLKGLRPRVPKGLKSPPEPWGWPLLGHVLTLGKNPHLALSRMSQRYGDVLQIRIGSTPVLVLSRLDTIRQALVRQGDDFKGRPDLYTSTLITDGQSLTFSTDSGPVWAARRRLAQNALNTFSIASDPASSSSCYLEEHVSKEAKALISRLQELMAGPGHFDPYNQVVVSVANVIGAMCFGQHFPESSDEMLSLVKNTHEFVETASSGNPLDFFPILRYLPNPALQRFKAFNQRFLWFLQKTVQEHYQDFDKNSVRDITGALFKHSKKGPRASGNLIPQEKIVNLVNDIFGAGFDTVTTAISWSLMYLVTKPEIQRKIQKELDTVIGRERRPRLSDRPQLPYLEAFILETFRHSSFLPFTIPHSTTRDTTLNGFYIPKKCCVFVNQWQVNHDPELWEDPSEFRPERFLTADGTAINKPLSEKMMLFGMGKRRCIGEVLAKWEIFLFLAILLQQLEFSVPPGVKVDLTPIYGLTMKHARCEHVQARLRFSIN

[11] = Trypanosoma cruzi growth suppression in host cells – NIH3T3 host cells, beta-gal luminescence, confirmation (AID 2044); format: functional, cell-based;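 note: intracellular parasites grown in NIH/3T3 mouse fibroblasts as host cells; luminescent beta-galactosidase reporter signal from transgenic T. cruzi replicating inside host cells; inhibitors lower the luminescence signal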
[12] = test system: INS1; assay: INS-1E survival protection against cytokine death – cell-based, luminescence, retest, dose response (AID 449756); format: functional; conditions: Rattus norvegicus;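 note: cell death triggered by IL-1 beta plus TNF-alpha plus IFN-gamma mixture; protective hits raise ATP signal compared with cytokine alone wells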
[13] = test system: H9c2; assay: cells; format: functional, cell-based; conditions: Rattus norvegicus, H9c2, Myocardium;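 note: confirmatory concentration-response retest of ultra-high-throughput screening hits for modulation of myocardial damage; cell death induced by hydrogen peroxide oxidative stress; compound pretreatment for 60 min then peroxide exposure for 2 h; potency is for protecting the cells against peroxide damage rather than for killing them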
[14] = loss of viability in HepG2 cells – cell-based, CellTiter-Glo, cherry-picked, cytotoxicity control for Shn3 inhibitor project, dose response (AID 624134); format: functional
[15] = reduction of Shn3 3'UTR-driven luciferase in osteoblasts – cell-based, Clone20 osteoblasts, firefly luciferase, cherry-picked, dose response (AID 624132); format: functional;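 note: firefly luciferase luminescence from reporter carrying the Shn3 3'UTR in osteoblasts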
[16] = non-specific 3'UTR reporter inhibition in Clone20-Shn3RL – cell-based, Renilla luciferase, cherry-picked, counter-screen for Shn3 inhibitor project, dose response (AID 624133); format: functional
[17] = biological target: Induced myeloid leukemia cell differentiation protein Mcl-1 (Homo sapiens, UniProt Q07820); format: functional
Chain of Induced myeloid leukemia cell differentiation protein Mcl-1 (Q07820 whole entry): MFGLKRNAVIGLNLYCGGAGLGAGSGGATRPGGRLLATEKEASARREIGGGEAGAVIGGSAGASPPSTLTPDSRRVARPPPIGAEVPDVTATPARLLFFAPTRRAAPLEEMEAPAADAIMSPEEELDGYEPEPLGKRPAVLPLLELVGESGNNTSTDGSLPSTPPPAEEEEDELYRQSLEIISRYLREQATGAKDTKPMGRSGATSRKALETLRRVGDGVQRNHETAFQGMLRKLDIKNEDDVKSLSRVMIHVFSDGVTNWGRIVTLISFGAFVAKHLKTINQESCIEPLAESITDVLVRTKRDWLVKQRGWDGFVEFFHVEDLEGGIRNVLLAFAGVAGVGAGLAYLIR

[18] = test system: BJ; assay: cells; format: functional, cell-based, Homo sapiens; conditions: Homo sapiens, BJ
[19] = test system: BJ; assay: BJ-TERT fibroblast viability loss – cell-based, RAS-independent, luminescence, dose response (AID 1933); format: functional, Homo sapiens; conditions: Homo sapiens, BJ
[20] = DRD fibroblast viability loss – cell-based, non-viral oncogenic, luminescence, dose response (AID 1934); format: functional; conditions: Homo sapiens
[21] = test system: BJ; assay: BJ-TERT-LT-ST fibroblast viability loss – cell-based, RAS-independent, luminescence, dose response (AID 1935); format: functional, Homo sapiens; conditions: Homo sapiens, BJ;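 note: BJ fibroblasts immortalized with TERT plus LT and ST oncogenes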

For `Cc1nnc(SCC(=O)N(C)Cc2ccccc2)nc1O`, the EC50 [1] was > 53 µM (inactive) and the IC50 [2] was > 47.1 µM (inactive).

With `CCN1C(=O)/C(=C\C=C\c2ccccc2[N+](=O)[O-])SC1=S` the EC50 [1] was > 53 µM (inactive) and the IC50 [2] was > 47.1 µM (inactive).

In the case of `C[C@H]1CN([C@@H](C)CO)S(=O)(=O)c2ccc(C#Cc3ccccc3)cc2O[C@@H]1CN(C)S(=O)(=O)c1cn(C)cn1`, the AC50 [3] is reported as 3.95 µM (active).

For `COc1ccc2c3c([nH]c2c1)[C@@H](CO)N(Cc1cc(F)ccc1F)CC31CN(C(=O)CN(C)C)C1`, the AC50 [3] was 3.87 µM (active).

In the case of `Cc1ccc(C(=O)N/C(=C\c2cn(C)c3ccccc23)C(=O)NCCCN2CCOCC2)cc1`, the EC50 [1] is reported as > 53 µM (inactive) and the IC50 [2] is reported as > 47.1 µM (inactive).

For `CN(C)c1ccc(-c2nc(NCCN3CCOCC3)c3ccccc3n2)cc1`, the AC50 [4] was 12.6 µM (inconclusive), the AC50 [5] was 39.8 µM (inconclusive) and the AC50 [6] was 25.1 µM (inconclusive).

For `O=C(Nc1nccs1)c1ccc2ccccc2c1`, the IC50 [7] was 20.8 µM (active) and the IC50 [8] was 6.75 µM (active).

With `CCCCn1c(N)c(N(CCC(C)C)C(=O)Cc2ccc(S(=O)(=O)N3CCOCC3)s2)c(=O)[nH]c1=O` the EC50 [1] was > 53 µM (inactive) and the IC50 [2] was > 47.1 µM (inactive).

With `FC(F)Sc1ccc(NC2=NN=C(c3ccc4c(c3)OCCO4)CS2)cc1` the EC50 [9] was 6.72 µM (active), the AC50 [10] was 35.5 µM (inconclusive) and the EC50 [11] was 1.99 µM (active). For the same compound, the AC50 [12] was 4.4 µM (active) and the AC50 [6] was 14.1 µM (inconclusive).

In the case of `COc1cc(C(=O)Nc2ccc(NC(=O)c3cccc(Cl)c3)nc2)cc(OC)c1OC`, the IC50 [13] is reported as 8.67 µM (active).

With `COCCN(C(=O)COC(=O)C1CCC(C(C)(C)C)CC1)c1c(N)n(Cc2ccccc2)c(=O)[nH]c1=O` (stereo unspecified) the AC50 [12] was 2.34 µM (active), the AC50 [14] was 43.1 µM (active) and the AC50 [15] was 5.15 µM (active). The AC50 [16] was 4.83 µM (active).

In the case of `CCC(=O)c1ccc(OCC(O)Cn2c(C)nc3ccccc32)cc1` (stereo unspecified), the AC50 [14] is reported as 49.9 µM (active), the AC50 [15] is reported as 2.28 µM (active) and the AC50 [16] is reported as 14.1 µM (active).

For `CN(C)c1ccc(/C=N/NC(=O)c2cccc(C(=O)N/N=C/c3ccc(N(C)C)cc3)n2)cc1`, the IC50 [17] was 1.15 µM (active).

In the case of `O=C(Cc1cccs1)Nc1nc2c(ccc3ccccc32)s1`, the EC50 [1] is reported as > 53 µM (inactive) and the IC50 [2] is reported as > 47.1 µM (inactive).

In the case of `C[C@@H](O)C#Cc1ccc([C@H]2[C@H]3CN(S(=O)(=O)c4ccccc4)CCCCN3[C@H]2CO)cc1`, the AC50 [3] is reported as 7.37 µM (active).

With `CN(C)c1ncc(S(=O)(=O)c2ccc(Cl)cc2)c(-c2ccc(Cl)cc2Cl)n1` the EC50 [1] was > 53 µM (inactive) and the IC50 [2] was > 47.1 µM (inactive).

For `Oc1ccc(N=Nc2ccc3c(c2)OCO3)c2ccccc12`, the EC50 [18] was 10.9 µM (active), the EC50 [19] was 2.85 µM (active) and the EC50 [20] was 19.4 µM (inconclusive). For the same compound, the EC50 [21] was 6.46 µM (inconclusive).

With `C[C@H]1CN([C@@H](C)CO)C(=O)Cc2cc(NS(C)(=O)=O)ccc2O[C@@H]1CN(C)Cc1ccc(Cl)c(Cl)c1` the EC50 [1] was 40.7 µM (active) and the IC50 [2] was > 47.1 µM (inactive).

With `COc1ccc(-c2ccc3c(c2)S(=O)(=O)c2cccc(C(=O)N4CCN(c5ccccn5)CC4)c2C3=O)cc1OC` the IC50 [13] was 15 µM (active).
